Experimental data reported in US9579296B2, “Compositions and methods for transdermal delivery of hormones and other medicinal agents” (Teikoku Pharma USA, Inc., priority 2012, dated 2017).
Like-named read-outs stand apart in the source and are kept apart here.

Procedure: To assay transdermal flux of levonorgestrel and ethinyl estradiol across the skin barrier, traditional Franz diffusion cells were used. Human cadaver skin epidermis was used as the substrate throughout all flux experiments to mimic in vivo conditions.
Prior to beginning the diffusion experiment, human cadaver epidermis was separated from underlying dermal tissue by floating the skin sample on 60° C. water for 2 minutes, followed by gently pealing the epidermis away from the dermal tissue with a spatula. The resulting epidermal tissue is then cut into squares having an approximate size of 2 cm×2 cm. Patch samples were then prepared by die-cutting the patches with a ⅝″ punch and arbor press. The release liner of the punched sample was then removed and the patch sample was placed on top of the epidermis with the drug adhesive layer contacting the stratum corneum. Gentle pressure was applied to the patch sample to achieve good contact between the adhesive layer and the stratum corneum.
Franz diffusion cells were assembled by placing the epidermis-patch samples between the receptor and donor chambers of the diffusion cell and clamping the chambers together with a pinch clamp. The receptor chamber was filled with phosphate buffered saline solution at pH 7.4 with 0.2% (w/w) NaN3 added as a preservative and 2% (w/w) beta-hydroxypropylcylclodextrin added to ensure sink conditions of the receptor fluid throughout the experiment. In addition, a stir bar was added to each receptor chamber. Care was taken to ensure any air bubbles underneath the skin were removed prior to beginning the flux study. The assembled diffusion cells were then placed in a stirring dry bath heater. The receptor chambers were continually stirred throughout the experiment and the temperature maintained at 32° C. Samples were taken at regular intervals over a period seven of days with fresh receptor solution being used to replace the removed sample aliquot. Sample aliquots were analyzed via high performance liquid chromatography (HPLC) with a gradient method using water (with 0.01% (w/w) formic acid) and acetonitrile (with 0.006% (w/w) formic acid) as the mobile phases, an Eclipse Plus C8 column, and ultraviolet (UV) detection at 220 nm. Flux values were calculated from the slopes of cumulative amounts of the drug in the receptor compartment versus time.
(§1) Transdermal delivery systems for administration of levonorgesterel and ethinyl estradiol were prepared and tested as described in Example 1, except that the adhesive polymer matrix contained levulinic acid and/or glyceryl monooleate.
as §1, with “monooleate, and pharmaceutical grade PVP/VA S-630 (sold under the tradename Plasdone S-630 by International Specialty Products located at Wayne, N.J.) was used.” for “monooleate.”
Transdermal flux assays measuring the flux of levonorgestrel were performed as described in Example 1.

In the case of `CC(=O)CCC(=O)O` [levulinic acid], the “flux of ethinyl estradiol, result in words” value (shortened to “flux of ethinyl estradiol”) is reported as “increase the flux of ethinyl estradiol relative to control Formulation A”.

In the case of `CCCCCCCCCCCCCC(=O)OC(C)C` [isopropyl myristate], the “flux of ethinyl estradiol” value is reported as “increase the flux of ethinyl estradiol relative to control Formulation A” and the “flux of levonorgestrel, result in words” value is reported as “increase the flux of levonorgestrel relative to control Formulation A”.

With `CCCCCCCC/C=C\CCCCCCCC(=O)OCC(O)CO` (stereo not shown) [glyceryl monooleate] the “flux of ethinyl estradiol” value (Example 1, Formulations A-I) was “increase the flux of ethinyl estradiol relative to control Formulation A”, the “flux of levonorgestrel, result in words” value (Example 1, Formulations A-I) was “increase the flux of levonorgestrel relative to control Formulation A” and the “flux of levonorgestrel, result in words” value (Example 1, Formulations A-I, listed as Glyceryl monooleate) was “larger increase in the flux of levonorgestrel than levulinic acid”.

With `CCCCCCCCCCCCOC(=O)C(C)O` (stereo not shown) [lauryl lactate] the “flux of levonorgestrel, result in words” value was “increase the flux of levonorgestrel relative to control Formulation T”.
